Laboratory results published in ChEMBL document CHEMBL1201862, “PubChem BioAssay data set” (2004).
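The compound was tested at five concentrations on cells cultured in 96-well plates, with a 48-hour exposure period. GI50: concentration for 50% inhibition of growth.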 The source made the active and inactive calls. Rule as the data show it: active = GI50 up to about 1.1 µM and inactive = higher.

Columns and labels:
Assay in all cases: inhibition of tumour cell growth, NCI panel, 48 h
SK-MEL-5 = system: SK-MEL-5
IGROV-1 = system: IGROV-1
SR = system: SR
SNB-19 = system: SNB-19
786-0 = system: 786-0
A549 = system: A549
NCI/ADR-RES = system: NCI/ADR-RES
MDA-N = system: MDA-N
OVCAR-4 = system: OVCAR-4
M14 = system: M14
CCRF-CEM = system: CCRF-CEM
TK-10 = system: TK-10
SF-295 = system: SF-295
MOLT-4 = system: MOLT-4
HCC 2998 = system: HCC 2998
SK-MEL-28 = system: SK-MEL-28
HL-60 = system: HL-60
UACC-257 = system: UACC-257
PC-3 = system: PC-3
A498 = system: A498

Measured: GI50

CCCNC(=O)CCC(C)C1CCC2C3C(C[C@H](OC(C)=O)[C@]12C)[C@@]1(C)CCC2(C[C@H]1C[C@H]3OC(C)=O)OOC1(CC[C@]3(C)C4C[C@H](OC(C)=O)[C@]5(C)C(C(C)CCC(=O)NCCC)CCC5C4[C@H](OC(C)=O)C[C@@H]3C1)OO2 (some centres not stated)
inactive: SK-MEL-5 36.8 µM | IGROV-1 20.2 µM | SR > 100 µM | SNB-19 > 100 µM | 786-0 > 100 µM | A549 > 100 µM | NCI/ADR-RES > 100 µM | MDA-N > 100 µM | OVCAR-4 > 100 µM | M14 25.6 µM | CCRF-CEM > 100 µM | TK-10 > 100 µM | SF-295 60.4 µM | MOLT-4 > 100 µM | HCC 2998 > 100 µM | SK-MEL-28 > 100 µM | HL-60 > 100 µM | UACC-257 31 µM | PC-3 > 100 µM

CC(C)(C)OC(=O)NCC(c1c[nH]c2cc(Br)ccc12)c1c[nH]c2cc(Br)ccc12
inactive: SK-MEL-5 17.3 µM | IGROV-1 14.9 µM | SR > 100 µM | SNB-19 21.8 µM | 786-0 18.6 µM | A549 20.1 µM | NCI/ADR-RES 17.7 µM | MDA-N 18.5 µM | OVCAR-4 16.7 µM | M14 18.7 µM | CCRF-CEM 62.1 µM | TK-10 19.7 µM | SF-295 18.6 µM | MOLT-4 34.6 µM | HCC 2998 18.9 µM | SK-MEL-28 29.2 µM | HL-60 27.2 µM | UACC-257 19.9 µM | PC-3 17.3 µM

CN(C(=O)c1ccc2c(c1)sc1c(=O)n(C)c3ccccc3c12)c1ccccc1
inactive: SK-MEL-5 > 100 µM | IGROV-1 > 100 µM | SR > 100 µM | SNB-19 > 100 µM | 786-0 59.7 µM | A549 > 100 µM | NCI/ADR-RES > 100 µM | MDA-N > 100 µM | OVCAR-4 > 100 µM | M14 > 100 µM | CCRF-CEM > 100 µM | TK-10 > 100 µM | SF-295 > 100 µM | MOLT-4 > 100 µM | HCC 2998 > 100 µM | SK-MEL-28 > 100 µM | HL-60 > 100 µM | UACC-257 > 100 µM | PC-3 > 100 µM

C#Cc1nc(N)c2ncn(C3OC(COS(N)(=O)=O)C(O)C3O)c2n1 (configuration not stated)
active: SK-MEL-5 0.0361 µM | IGROV-1 0.0291 µM | SR < 0.01 µM | SNB-19 0.0208 µM | 786-0 0.0367 µM | A549 0.0881 µM | NCI/ADR-RES < 0.0184 µM | MDA-N < 0.0168 µM | OVCAR-4 < 0.0193 µM | M14 < 0.0426 µM | CCRF-CEM < 0.0189 µM | TK-10 < 0.022 µM | SF-295 0.757 µM | MOLT-4 < 0.0181 µM | HCC 2998 < 0.01 µM | SK-MEL-28 0.0374 µM | A498 < 0.0148 µM | UACC-257 < 0.0318 µM | PC-3 < 0.0204 µM

C[C@]12CC[C@H]3[C@@H](CCC4=C[C@@H](N5CCCC5)CC[C@@]43C)[C@@H]1C/C(=C\c1ccncc1)[C@@H]2O
inactive: SK-MEL-5 12 µM | IGROV-1 20.6 µM | SR 3.16 µM | SNB-19 14.5 µM | 786-0 2.86 µM | A549 12.3 µM | NCI/ADR-RES 17.6 µM | MDA-N 11.4 µM | OVCAR-4 18 µM | M14 2.39 µM | TK-10 13.2 µM | SF-295 4.91 µM | MOLT-4 7.73 µM | HCC 2998 5.07 µM | SK-MEL-28 7.31 µM | HL-60 16 µM | UACC-257 6.19 µM | PC-3 13.6 µM
active: CCRF-CEM 0.445 µM

COc1ccc2c(c1)CC1C3(CCCCC23)CC[N+]1(C)C (configuration not stated)
inactive: SK-MEL-5 > 100 µM | IGROV-1 > 100 µM | SR > 100 µM | SNB-19 73.5 µM | 786-0 > 100 µM | A549 > 100 µM | NCI/ADR-RES > 100 µM | MDA-N > 100 µM | OVCAR-4 > 100 µM | M14 > 100 µM | CCRF-CEM > 100 µM | TK-10 > 100 µM | SF-295 > 100 µM | MOLT-4 > 100 µM | HCC 2998 > 100 µM | SK-MEL-28 > 100 µM | HL-60 50.5 µM | UACC-257 > 100 µM | PC-3 > 100 µM

CCOc1ccc2nc3nc(O)nc(C)c3c(NC(C)(CO)CO)c2c1
inactive: SK-MEL-5 > 100 µM | IGROV-1 > 100 µM | SNB-19 > 100 µM | 786-0 > 100 µM | A549 > 100 µM | NCI/ADR-RES > 100 µM | MDA-N > 100 µM | OVCAR-4 > 100 µM | M14 > 100 µM | CCRF-CEM > 100 µM | TK-10 > 100 µM | SF-295 > 100 µM | MOLT-4 > 100 µM | HCC 2998 > 100 µM | SK-MEL-28 > 100 µM | HL-60 > 100 µM | A498 > 100 µM | UACC-257 > 100 µM | PC-3 > 100 µM

Cc1cc(Cl)nc2nc(Cl)c(N)cc12
inactive: SK-MEL-5 10.9 µM | IGROV-1 7.87 µM | SR 2.88 µM | SNB-19 4.95 µM | 786-0 2.86 µM | A549 13.5 µM | NCI/ADR-RES 14.8 µM | MDA-N 1.88 µM | OVCAR-4 2.64 µM | M14 8.67 µM | CCRF-CEM 1.67 µM | TK-10 6.58 µM | SF-295 12.3 µM | MOLT-4 4.6 µM | HCC 2998 1.86 µM | SK-MEL-28 2.56 µM | HL-60 1.77 µM | UACC-257 1.87 µM | PC-3 12.1 µM

CC(=O)OCC(OC(C)=O)C(OC(C)=O)C(/C=N\Nc1nc2ccccc2c(=O)[nH]1)=N\Nc1nc2ccccc2c(=O)[nH]1 (configuration not stated)
inactive: SK-MEL-5 > 100 µM | IGROV-1 > 100 µM | SR 63.8 µM | SNB-19 > 100 µM | 786-0 > 100 µM | A549 > 100 µM | NCI/ADR-RES > 100 µM | MDA-N > 100 µM | M14 > 100 µM | CCRF-CEM 34.4 µM | SF-295 > 100 µM | MOLT-4 > 100 µM | HCC 2998 19.1 µM | SK-MEL-28 > 100 µM | HL-60 > 100 µM | UACC-257 17.3 µM | PC-3 > 100 µM

O=C(NC/C(Cl)=C/Cl)Nc1cccc2c1CCCC2
inactive: SK-MEL-5 > 100 µM | IGROV-1 > 100 µM | SR 35.9 µM | SNB-19 > 100 µM | 786-0 89.3 µM | A549 > 100 µM | NCI/ADR-RES > 100 µM | MDA-N > 100 µM | OVCAR-4 > 100 µM | M14 > 100 µM | TK-10 46.7 µM | SF-295 > 100 µM | MOLT-4 29.5 µM | HCC 2998 > 100 µM | SK-MEL-28 > 100 µM | A498 65.8 µM | UACC-257 58.9 µM | PC-3 74.5 µM

CC(OC(=O)C(CC(=O)OC(C)(C)C)NC(=O)OC(C)(C)C)C(=O)OCc1ccccc1 (configuration not stated)
inactive: IGROV-1 > 100 µM | SR > 100 µM | SNB-19 > 100 µM | 786-0 > 100 µM | A549 > 100 µM | NCI/ADR-RES > 100 µM | MDA-N > 100 µM | OVCAR-4 > 100 µM | M14 > 100 µM | CCRF-CEM > 100 µM | TK-10 > 100 µM | SF-295 > 100 µM | MOLT-4 > 100 µM | HCC 2998 > 100 µM | SK-MEL-28 > 100 µM | HL-60 > 100 µM | UACC-257 > 100 µM | PC-3 > 100 µM

CN1CCN(Cc2nc3c(s2)CCc2sccc2-3)CC1
inactive: SK-MEL-5 36.4 µM | IGROV-1 > 100 µM | SR 36.1 µM | SNB-19 74.8 µM | 786-0 95.3 µM | A549 > 100 µM | NCI/ADR-RES > 100 µM | MDA-N 48.6 µM | OVCAR-4 > 100 µM | M14 28.4 µM | CCRF-CEM > 100 µM | TK-10 92.7 µM | SF-295 73.1 µM | MOLT-4 77.8 µM | HCC 2998 51.4 µM | SK-MEL-28 25.4 µM | A498 12.7 µM | UACC-257 79.3 µM | PC-3 63.8 µM

N#CC(c1ccccc1)N(CCCCCCN(C(=O)c1ccccc1)C(C#N)c1ccccc1)C(=O)c1ccccc1 (configuration not stated)
inactive: SK-MEL-5 17.9 µM | IGROV-1 52.6 µM | SNB-19 44.2 µM | 786-0 33.7 µM | A549 40.7 µM | NCI/ADR-RES 16 µM | MDA-N 45.1 µM | OVCAR-4 35 µM | M14 41.2 µM | CCRF-CEM 49.8 µM | TK-10 18.7 µM | SF-295 27.9 µM | MOLT-4 34.4 µM | HCC 2998 17.1 µM | SK-MEL-28 44.4 µM | HL-60 32.3 µM | A498 15 µM | UACC-257 22.8 µM | PC-3 28.2 µM

CCCC(=O)NC(NC1CCCCC1)(C(=O)OCC)C(F)(F)F (configuration not stated)
inactive: SK-MEL-5 > 100 µM | IGROV-1 > 100 µM | SR > 100 µM | SNB-19 > 100 µM | 786-0 > 100 µM | A549 > 100 µM | NCI/ADR-RES > 100 µM | MDA-N > 100 µM | OVCAR-4 > 100 µM | M14 > 100 µM | CCRF-CEM > 100 µM | TK-10 > 100 µM | SF-295 > 100 µM | MOLT-4 > 100 µM | HCC 2998 > 100 µM | SK-MEL-28 > 100 µM | HL-60 > 100 µM | UACC-257 > 100 µM | PC-3 > 100 µM
